Assay [1] has as its target T1, His-TEV-DYRK1A Kinase domain (aa127-485) (Homo sapiens, UniProt Q13627).
T1 construct: His-TEV-DYRK1A Kinase domain (aa127-485); His tag (N); TEV protease cleavage site (N)
Description: Kinase ADP assay (ADP Hunter), DYRK1A kinase domain. Format: biochemical. The conditions noted are these: 20 μM ATP. An outline of the steps: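 Readout is ADP Hunter fluorescence at 590 nm, developed 20 min at 30 °C after the kinase step. That step ran 10 min at 30 °C in Hepes pH 7.4 (10 mM MgCl2, 1 mM EGTA, 0.02% Tween20) containing 20 μM ATP, 40 μM peptide and 20 nM enzyme plus compound.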

Assay [2] deals with T2, DYRK1B (Homo sapiens, UniProt Q9Y463).
T2 construct: full-length human kinases from Carna Biosciences; purchased Carna Biosciences 04-131
T2 sequence (Q9Y463 whole entry): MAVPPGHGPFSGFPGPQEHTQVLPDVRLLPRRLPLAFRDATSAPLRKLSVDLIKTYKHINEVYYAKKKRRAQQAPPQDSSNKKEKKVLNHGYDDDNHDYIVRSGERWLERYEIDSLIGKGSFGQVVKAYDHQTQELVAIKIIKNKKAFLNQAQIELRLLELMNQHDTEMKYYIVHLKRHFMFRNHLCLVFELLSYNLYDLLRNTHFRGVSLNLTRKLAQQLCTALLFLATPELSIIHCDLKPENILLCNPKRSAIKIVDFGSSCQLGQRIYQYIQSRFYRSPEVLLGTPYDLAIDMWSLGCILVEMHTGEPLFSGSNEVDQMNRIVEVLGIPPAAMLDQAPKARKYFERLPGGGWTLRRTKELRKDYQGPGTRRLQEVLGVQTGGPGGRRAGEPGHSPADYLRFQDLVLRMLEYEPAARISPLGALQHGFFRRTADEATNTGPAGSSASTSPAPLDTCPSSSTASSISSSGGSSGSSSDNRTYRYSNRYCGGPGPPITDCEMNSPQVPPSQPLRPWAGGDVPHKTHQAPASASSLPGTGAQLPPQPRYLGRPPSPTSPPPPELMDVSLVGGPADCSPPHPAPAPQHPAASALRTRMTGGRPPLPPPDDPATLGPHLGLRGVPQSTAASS
As to the kind of experiment: Kinase TR-FRET assay, DYRK1B. As to conditions: full-length human kinase, 10 μM ATP. Format: biochemical. An outline of the steps: (§1)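 Compounds tested at 0.1 nM to 30 μM in reaction buffer; reaction stopped with 10 mM EDTA. Phosphorylated MBP detected with 1 nM Europium-labelled anti-phospho-Thr232 antibody by TR-FRET.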

The target in assay [3] is T3, CLK1 (Homo sapiens, UniProt P49759).
T3 construct: full-length human kinases from Carna Biosciences; purchased Carna Biosciences 04-126
T3 sequence (P49759 1-526 isoform P49759-3): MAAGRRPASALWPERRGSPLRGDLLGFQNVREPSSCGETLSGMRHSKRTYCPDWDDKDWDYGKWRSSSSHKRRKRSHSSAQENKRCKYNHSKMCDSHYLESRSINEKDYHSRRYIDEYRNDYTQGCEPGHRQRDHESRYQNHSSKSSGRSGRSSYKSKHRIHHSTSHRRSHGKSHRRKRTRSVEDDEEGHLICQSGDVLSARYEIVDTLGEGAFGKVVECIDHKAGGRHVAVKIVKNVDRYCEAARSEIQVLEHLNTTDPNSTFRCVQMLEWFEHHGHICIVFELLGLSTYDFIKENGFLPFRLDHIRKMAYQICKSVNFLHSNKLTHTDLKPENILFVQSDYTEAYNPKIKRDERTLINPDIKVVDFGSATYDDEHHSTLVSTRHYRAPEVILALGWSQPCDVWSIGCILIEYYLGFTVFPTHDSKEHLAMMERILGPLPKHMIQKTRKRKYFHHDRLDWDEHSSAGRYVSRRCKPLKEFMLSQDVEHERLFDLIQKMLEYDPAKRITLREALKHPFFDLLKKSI
As to the kind of experiment: Kinase TR-FRET assay, CLK1. As to conditions: full-length human kinase, 10 μM ATP. In kind it is biochemical. A digest of the protocol: as §1

Assay [4] deals with T4, DYRK1A (Homo sapiens, UniProt Q13627). Description: Cellular DYRK1 autophosphorylation assay in U2-OS cells. The conditions noted are these: U2-OS cells transfected with HA-tagged human DYRK1A, 5 hours exposure; read-out: IC50 (μM) P-Ser520-Dyrk1A -Cell assay. More on the design: full-length, wild-type human DYRK1A (NM_001396) with an HA tag; expressed in transfected cells; host or cells: human U2-OS osteosarcoma cells, transient transfection of a pcDNA3.1 plasmid. Format: cell-based. An outline of the steps:
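IC50 derived from dose-response curves of phospho-Ser520-DYRK1A (blots normalised to total DYRK1A), quantified by either immunoblotting with chemiluminescence or Mesoscale electrochemiluminescent ELISA. Compounds applied to U2-OS cells across several concentrations for 5 hours.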

The target in assay [5] is T5, CDK9 (Homo sapiens, UniProt P50750).
T5 construct: full-length human kinases from Carna Biosciences; purchased Carna Biosciences 04-110
T5 sequence (P50750 whole entry): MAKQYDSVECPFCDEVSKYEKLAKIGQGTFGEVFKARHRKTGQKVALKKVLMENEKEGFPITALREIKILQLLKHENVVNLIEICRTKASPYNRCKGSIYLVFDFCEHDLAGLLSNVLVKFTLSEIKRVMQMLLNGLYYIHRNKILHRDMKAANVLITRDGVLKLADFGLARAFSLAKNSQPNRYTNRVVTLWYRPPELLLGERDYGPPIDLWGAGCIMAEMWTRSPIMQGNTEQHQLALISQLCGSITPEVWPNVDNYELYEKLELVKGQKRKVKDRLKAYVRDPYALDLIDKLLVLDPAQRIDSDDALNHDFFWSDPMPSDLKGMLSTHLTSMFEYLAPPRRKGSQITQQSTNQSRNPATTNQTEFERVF
T5 sequence (O60563 whole entry partner): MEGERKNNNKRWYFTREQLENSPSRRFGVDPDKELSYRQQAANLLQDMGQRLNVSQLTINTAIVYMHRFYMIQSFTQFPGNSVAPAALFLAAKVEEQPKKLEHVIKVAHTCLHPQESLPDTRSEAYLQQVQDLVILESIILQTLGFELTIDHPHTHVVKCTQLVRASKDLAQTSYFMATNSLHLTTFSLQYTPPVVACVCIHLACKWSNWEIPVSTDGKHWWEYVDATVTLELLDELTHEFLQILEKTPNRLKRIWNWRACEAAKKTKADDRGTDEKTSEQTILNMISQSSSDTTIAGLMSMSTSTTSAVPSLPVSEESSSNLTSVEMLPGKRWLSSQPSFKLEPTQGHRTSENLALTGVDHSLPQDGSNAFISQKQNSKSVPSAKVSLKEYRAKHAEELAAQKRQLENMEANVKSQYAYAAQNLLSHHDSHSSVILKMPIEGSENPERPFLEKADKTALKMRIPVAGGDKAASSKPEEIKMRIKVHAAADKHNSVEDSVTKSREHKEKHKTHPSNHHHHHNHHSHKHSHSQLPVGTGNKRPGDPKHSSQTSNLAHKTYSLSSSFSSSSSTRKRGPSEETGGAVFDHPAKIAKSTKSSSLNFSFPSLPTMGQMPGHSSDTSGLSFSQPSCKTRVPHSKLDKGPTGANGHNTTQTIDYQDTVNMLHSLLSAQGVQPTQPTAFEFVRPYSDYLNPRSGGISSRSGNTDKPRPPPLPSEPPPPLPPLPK
As to the kind of experiment: Kinase TR-FRET assay, CDK9. In kind it is biochemical. The conditions noted are these: full-length human kinase, 10 μM ATP. A digest of the protocol: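 Full-length human CDK9 (0.9 ng/μl) incubated 100 min at room temperature with 10 μM ATP, 100 nM ULight-MBP peptide and compound (0.1 nM–30 μM) in 50 mM HEPES pH 7.4, 1 mM EGTA, 10 mM MgCl2, 2 mM DTT, 0.01% Tween20. Stopped with 10 mM EDTA, then 1 nM Eu-anti-phospho-Thr232 MBP antibody added for 1 h. TR-FRET read at 665/620 nm with 340 nm excitation.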

The target in assay [6] is T4, DYRK1A. Description: Kinase TR-FRET assay, DYRK1A. In kind it is biochemical. More on the design: full-length, wild-type human DYRK1A (NM_001396) with an HA tag; expressed in transfected cells; host or cells: human U2-OS osteosarcoma cells, transient transfection of a pcDNA3.1 plasmid. As to conditions: full-length human kinase, 10 μM ATP. An outline of the steps: as §1

A value given as a limit tells only on which side of the number the result lay.

As to `COc1cc(Cn2c(C)nc3ccc(-c4cc(N)nc(N)c4)nc32)ccn1` [Example 72, 4-{3-[(2-methoxypyridin-4-yl)methyl]-2-methyl-3H-imidazo[4,5-b]pyridin-5-yl}pyridine-2,6-diamine], the IC50 is 0.015 µM in assay [1]; 0.014 µM in assay [2]; 0.09 µM in assay [3]; 0.184 µM in assay [4]; greater than 10 µM in assay [5]; 0.01 µM in assay [6].

Consider `Cc1nc2ccc(-c3cc(N)nc(N)c3)nc2n1CCC1CCCC1` [Example 92, 4-[3-(2-cyclopentylethyl)-2-methyl-3H-imidazo[4,5-b]pyridin-5-yl]pyridine-2,6-diamine], for which the half-maximal inhibitory concentration (IC50) in assay [1] came out at 0.006 µM; in assay [2], 0.007 µM; in assay [3], 0.017 µM; in assay [4], 0.058 µM; in assay [5] it was 0.564 µM; in assay [6] it was 0.002 µM.

Turning to `COCCCCn1c(C)nc2ccc(-c3cc(N)nc(N)c3)nc21` [Example 151, 4-[3-(4-methoxybutyl)-2-methyl-3H-imidazo[4,5-b]pyridin-5-yl]pyridine-2,6-diamine], the IC50 in assay [1] came out at 0.013 µM; in assay [2], 0.008 µM; in assay [3], 0.019 µM; in assay [4] it was 0.17 µM; in assay [5], 2.87 µM; in assay [6], 0.004 µM.

As to `Cc1nc2ccc(-c3cc(N)nc(N)c3)nc2n1CCOc1ccc2[nH]ccc2c1` [Example 210, 4-{3-[2-(1H-indol-5-yloxy)ethyl]-2-methyl-3H-imidazo[4,5-b]pyridin-5-yl}pyridine-2,6-diamine], the IC50 in assay [1] came to 0.008 µM; in assay [2] it was 0.006 µM; in assay [3] it was 0.018 µM; in assay [4] it was 0.047 µM; in assay [5], 1.01 µM; in assay [6] it was 0.003 µM.

In the case of `Cc1nc2ccc(-c3cc(N)nc(N)c3)nc2n1C[C@H](C)Oc1ccccc1` (single isomer, unassigned) [Example 107], the IC50 in assay [1] is 0.012 µM; in assay [2], 0.007 µM; in assay [3], 0.037 µM; in assay [4], 0.111 µM; in assay [5], greater than 3 µM; in assay [6], 0.008 µM.

Turning to `Cc1nc2ccc(-c3cc(N)nc(N)c3)nc2n1C[C@@H](C)Oc1cccc(F)n1` (single isomer, unassigned) [Example 189], the IC50 in assay [1] was found to be 0.013 µM; in assay [2], 0.007 µM; in assay [3], 0.017 µM; in assay [4] it was 0.026 µM; in assay [5], 0.339 µM; in assay [6], 0.007 µM.

`COC1CCCCC1CCn1c(C)nc2ccc(-c3cc(N)nc(N)c3)nc21` (stereo not drawn) [Example 95, 4-{3-[2-(2-methoxycyclohexyl)ethyl]-2-methyl-3H-imidazo[4,5-b]pyridin-5-yl}pyridine-2,6-diamine]: the IC50 in assay [1] was determined as 0.012 µM; in assay [2], 0.011 µM; in assay [3], 0.029 µM; in assay [4] it was 0.021 µM; in assay [5], 1.8 µM; in assay [6], 0.003 µM.

(Values after patent US20180273528A1 (LES LABORATOIRES SERVIER, priority 2015, published 2018).)
